Test results as given in patent publication US11021457B2, “Class of isoindolone-imide ring-1,3-dione-2-ene compounds, composition and use thereof” (WIGEN BIOMEDICINE TECHNOLOGY (SHANGHAI) CO., LTD., priority 2017, dated 2021).
pIC50: −log10 of the molar value.

Assays:
[1] = test system: SU-DHL6; assay: Inhibition of tumor cell proliferation, CellTiter-Glo, SU-DHL6; type: cell-based; conditions: compound concentration 50 μM, 72 hours
Procedure, shortened: (§1)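 Activity is graded from survival at 50 μM: + for 60 to under 90%, ++ for over 30 to 60%, +++ for 30% or less. Survival was measured luminescently (CellTiter-Glo) 72 h after dosing, relative to untreated and blank wells; 2000-10000 cells/well, 37° C, 5% CO2.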

[2] = test system: RPMI-8226; assay: Inhibition of tumor cell proliferation, CellTiter-Glo, RPMI-8226; type: cell-based; conditions: compound concentration 50 μM, 72 hours
Procedure, shortened: as §1

[3] = test system: K562; assay: Inhibition of tumor cell proliferation, CellTiter-Glo, K562; type: cell-based; conditions: compound concentration 50 μM, 72 hours
Procedure, shortened: as §1

[4] = test system: A549; assay: Inhibition of tumor cell proliferation, CellTiter-Glo, A549; type: cell-based; conditions: compound concentration 50 μM, 72 hours
Procedure, shortened: as §1

[5] = test system: MDA-MB-453; assay: Inhibition of tumor cell proliferation, CellTiter-Glo, MDA-MB-453; type: cell-based; conditions: compound concentration 50 μM, 72 hours
Procedure, shortened: as §1

[6] = test system: BxPC-3; assay: Inhibition of tumor cell proliferation, CellTiter-Glo, BxPC-3; type: cell-based; conditions: compound concentration 50 μM, 72 hours
Procedure, shortened: as §1

[7] = molecular target: LC3B (Homo sapiens (Human), UniProt Q9GZQ8); assay: Fluorescence polarization experiment targeting LC3B (GST-LC3B with FITC-labeled peptide); conditions: GST-LC3B 180 nM, FITC-labeled peptide 18 nM, 25° C.

| Compound | Inhibitory activity against proliferation (cell survival rate) SU-DHL6 [1] | Inhibitory activity against proliferation (cell survival rate) RPMI-8226 [2] | Inhibitory activity against proliferation (cell survival rate) K562 [3] | Inhibitory activity against proliferation (cell survival rate) A549 [4] | Inhibitory activity against proliferation (cell survival rate) MDA-MB-453 [5] | Inhibitory activity against proliferation (cell survival rate) BxPC-3 [6] | pIC50 [7] |
| --- | --- | --- | --- | --- | --- | --- | --- |
| O=C1CCC(N2C(=O)c3cccc(NC=C4C(=O)CC(c5cccc6[nH]ccc56)CC4=O)c3C2=O)C(=O)N1 (centres unmarked) [Compound 5] | + (60≤survival rate (%)<90) | + (60≤survival rate (%)<90) | + (60≤survival rate (%)<90) | +++ (survival rate (%)≤30) | +++ (survival rate (%)≤30) | + (60≤survival rate (%)<90) | > 5.52 |
| O=C1CCC(N2Cc3c(NC=C4C(=O)CC(c5ccc(Cl)cc5F)CC4=O)cccc3C2=O)C(=O)N1 (centres unmarked) [Compound 145] | +++ (survival rate (%)≤30) | ++ (30<survival rate (%)≤60) | ++ (30<survival rate (%)≤60) | +++ (survival rate (%)≤30) | +++ (survival rate (%)≤30) | + (60≤survival rate (%)<90) | > 5.52 |
| O=C1CCC(N2C(=O)c3cccc(NC=C4C(=O)CC(c5c(Br)ccc6[nH]cc(Cl)c56)CC4=O)c3C2=O)C(=O)N1 (centres unmarked) [Compound 13] | ++ (30<survival rate (%)≤60) | + (60≤survival rate (%)<90) | + (60≤survival rate (%)<90) | +++ (survival rate (%)≤30) | +++ (survival rate (%)≤30) | ++ (30<survival rate (%)≤60) | > 5.52 |
| O=C1CCC(N2Cc3c(NC(=O)CCNC=C4C(=O)CC(c5ccccc5)CC4=O)cccc3C2=O)C(=O)N1 (centres unmarked) [Compound 45] | + (60≤survival rate (%)<90) | + (60≤survival rate (%)<90) | + (60≤survival rate (%)<90) | + (60≤survival rate (%)<90) | + (60≤survival rate (%)<90) | + (60≤survival rate (%)<90) | 3.00 to 4.00 |
| O=C1CCC(N2Cc3c(NC=C4C(=O)CC(c5c[nH]c6cccc(F)c56)CC4=O)cccc3C2=O)C(=O)N1 (centres unmarked) [Compound 41] | + (60≤survival rate (%)<90) | + (60≤survival rate (%)<90) | +++ (survival rate (%)≤30) | +++ (survival rate (%)≤30) | + (60≤survival rate (%)<90) | + (60≤survival rate (%)<90) | > 5.52 |
| O=C1CCC(N2Cc3c(NC=C4C(=O)CC(c5ccc(F)cc5Br)CC4=O)cccc3C2=O)C(=O)N1 (centres unmarked) [Compound 17] | + (60≤survival rate (%)<90) | +++ (survival rate (%)≤30) | + (60≤survival rate (%)<90) | ++ (30<survival rate (%)≤60) | + (60≤survival rate (%)<90) | + (60≤survival rate (%)<90) | > 5.52 |
| COc1cc(Br)c(C2CC(=O)C(=CNc3cccc4c3CN(C3CCC(=O)NC3=O)C4=O)C(=O)C2)cc1OC (centres unmarked) [Compound 143] | +++ (survival rate (%)≤30) | ++ (30<survival rate (%)≤60) | ++ (30<survival rate (%)≤60) | +++ (survival rate (%)≤30) | +++ (survival rate (%)≤30) | + (60≤survival rate (%)<90) | > 5.52 |
| O=C1CCC(N2Cc3c(NC=C4C(=O)CC(c5ccc(F)cc5)CC4=O)cccc3C2=O)C(=O)N1 (centres unmarked) [Compound 19] | + (60≤survival rate (%)<90) | ++ (30<survival rate (%)≤60) | ++ (30<survival rate (%)≤60) | + (60≤survival rate (%)<90) | ++ (30<survival rate (%)≤60) | ++ (30<survival rate (%)≤60) | > 5.52 |
